Experimental findings from ChEMBL document CHEMBL5365449, “Permeation behavior of porphyrin derivatives with different functional group positions across cancer cell membranes” (Bioorg Med Chem Lett, 2023) are described below.

The nature of data set [1]: Drug accumulation of the compound in human MCF7 cells assessed as accumulation at lysosome by fluorescence microscopy. The data set is classed as ADME, subcellular.
Data set [2] in a line: Drug accumulation of the compound in human MCF7 cells assessed as accumulation at mitochondria by fluorescence microscopy. The data set is classed as ADME.
Data set [3] is described as follows: Drug accumulation of the compound in human MCF7 cells assessed as accumulation at 4 degC by fluorescence microscopy. The data set is classed as ADME, cell-based.
The nature of data set [4]: Drug uptake in human MCF7 cells assessed as increase in internalization by measuring fold increase of fluorescence intensity in the presence of LDL by fluorescence spectrum analysis. The data set is classed as ADME, cell-based.

Each structure is given as a SMILES string.

On to `O=C(Nc1ccc(-c2c3nc(c(-c4ccccc4)c4ccc([nH]4)c(-c4ccccc4)c4nc(c(-c5ccccc5)c5ccc2[nH]5)C=C4)C=C3)cc1)c1ccccc1`, for which the Drug uptake entry in data set [1] is “Active”; in data set [2] it was “Active”; in data set [3], 3.7 10^-2microM. In data set [4], the “fold change (FC)” value is listed as 6.
Regarding `O=C(NC1=Cc2nc1c(-c1ccccc1)c1ccc([nH]1)c(-c1ccccc1)c1nc(c(-c3ccccc3)c3ccc([nH]3)c2-c2ccccc2)C=C1)c1ccccc1`, the Drug uptake result was “Active” in data set [1], “Active” in data set [2] and 7.5 10^-2microM in data set [3]. The “fold change (FC)” value in data set [4] was 12.
